Experimental data: patent publication US9884832B2 (priority 2011, dated 2018)
Where two headings read alike, the source gives them in different places.

Target: AM2 S31N (serine→asparagine mutation at residue 31 in the M2 protein) (Influenza A virus, UniProt P0DOF5, S31N)
Format: cell-based, influenza virus A/Udorn/72

| SMILES | S31N OOcyte Inhibition at 100 uM (%) (pH 5.5) | S31N OOcyte Inhibition at 100 uM (%) |
| --- | --- | --- |
| Fc1cc(F)cc(-c2cc(CNC34CC5CC(CC(C5)C3)C4)no2)c1 [Example 33b, N-((5-(3,5-difluorophenyl)isoxazol-3-yl)methyl)adamantan-1-amine] | A (key: (A)=31-95%; (B)=0-30%) | – |
| COc1ccc(-c2nc(CNC34CC5CC(CC(C5)C3)C4)no2)c(OC)c1 [Example 34b, N-((5-(2,4-dimethoxyphenyl)-1,2,4-oxadiazol-3-yl)methyl)adamantan-1-amine] | A (key: (A)=31-95%; (B)=0-30%) | – |
| COc1ccc(-c2noc(CNC34CC5CC(CC(C5)C3)C4)n2)cc1OC [Example 35b, N-((3-(3,4-dimethoxyphenyl)-1,2,4-oxadiazol-5-yl)methyl)adamantan-1-amine] | A (key: (A)=31-95%; (B)=0-30%) | – |
| c1cn(-c2ccc(CNC34CC5CC(CC(C5)C3)C4)cc2)cn1 [Example 36a, N-(4-(1H-imidazol-1-yl)benzyl)adamantan-1-amine] | – | 26.9% |
| FC(F)(F)Oc1ccc(-c2cc(CNC34CC5CC(CC(C5)C3)C4)no2)cc1 [Example 36b, N-((5-(4-(trifluoromethoxy)phenyl)isoxazol-3-yl)methyl)adamantan-1-amine] | B (key: (A)=31-95%; (B)=0-30%) | – |
| CSc1ccc(-c2cc(CNC34CC5CC(CC(C5)C3)C4)no2)cc1 [Example 37b, N-((5-(4-(methylthio)phenyl)isoxazol-3-yl)methyl)adamantan-1-amine] | A (key: (A)=31-95%; (B)=0-30%) | – |
| Fc1cccc(F)c1-c1cc(CNC23CC4CC(CC(C4)C2)C3)no1 [Example 38b, N-((5-(2,6-difluorophenyl)isoxazol-3-yl)methyl)adamantan-1-amine] | A (key: (A)=31-95%; (B)=0-30%) | – |
| COc1cccc(-c2cc(CNC34CC5CC(CC(C5)C3)C4)no2)c1 [Example 39b, N-((5-(3-methoxyphenyl)isoxazol-3-yl)methyl)adamantan-1-amine] | A (key: (A)=31-95%; (B)=0-30%) | – |
| CSc1ccc(-c2cc(CNCC34CC5CC(CC(C5)C3)C4)no2)cc1 [Example 40b, 1-((3r,5r,7r)-adamantan-1-yl)-N-((5-(4-(methylthio)phenyl)isoxazol-3-yl)methyl)methanamine] | A (key: (A)=31-95%; (B)=0-30%) | – |
| COc1ccc(-c2cc(CNC34CC5CC(CC(C5)C3)C4)no2)c(OC)c1 [Example 41b, N-((5-(2,4-dimethoxyphenyl)isoxazol-3-yl)methyl)adamantan-1-amine] | A (key: (A)=31-95%; (B)=0-30%) | – |
| CSc1ccccc1-c1cc(CNC23CC4CC(CC(C4)C2)C3)no1 [Example 42b, N-((5-(2-(methylthio)phenyl)isoxazol-3-yl)methyl)adamantan-1-amine] | A (key: (A)=31-95%; (B)=0-30%) | – |
| c1cc2cn[nH]c2cc1CNC12CC3CC(CC(C3)C1)C2 [Example 43a, N-((1H-indazol-6-yl)methyl)adamantan-1-amine] | – | B (key: (A)=31-95%; (B)=0-30%) |
| COc1ccsc1-c1cc(CNC23CC4CC(CC(C4)C2)C3)no1 [Example 44b, N-((5-(3-methoxythiophen-2-yl)isoxazol-3-yl)methyl)adamantan-1-amine] | A (key: (A)=31-95%; (B)=0-30%) | – |
| Clc1ccccc1-c1cc(CNC23CC4CC(CC(C4)C2)C3)no1 [Example 45b, N-((5-(2-chlorophenyl)isoxazol-3-yl)methyl)adamantan-1-amine] | A (key: (A)=31-95%; (B)=0-30%) | – |
| Oc1cc(-c2ccoc2)ccc1CNC12CC3CC(CC(C3)C1)C2 [Example 46a] | – | A (key: (A)=31-95%; (B)=0-30%) |
| CSC(C)(C)Cc1cc(CNC23CC4CC(CC(C4)C2)C3)no1 [Example 46b, N-((5-(2-methyl-2-(methylthio)propyl)isoxazol-3-yl)methyl)adamantan-1-amine] | A (key: (A)=31-95%; (B)=0-30%) | – |
| Brc1ccsc1CNC12CC3CC(CC(C3)C1)C2 [Example 47b, N-((3-Bromothiophen-2-yl)methyl)adamantan-1-amine] | B (key: (A)=31-95%; (B)=0-30%) | – |
| c1sc(CNC23CC4CC(CC(C4)C2)C3)cc1C1CC1 [Example 48b, N-((4-Cyclopropylthiophen-2-yl)methyl)adamantan-1-amine] | A (key: (A)=31-95%; (B)=0-30%) | – |
| Oc1cc(-c2cccs2)ccc1CNC12CC3CC(CC(C3)C1)C2 [Example 49a] | – | B (key: (A)=31-95%; (B)=0-30%) |
| CCOc1ccc(-c2ccc(CNC34CC5CC(CC(C5)C3)C4)s2)cc1 [Example 49b, N-((5-(4-Ethoxyphenyl)thiophen-2-yl)methyl)adamantan-1-amine] | A (key: (A)=31-95%; (B)=0-30%) | – |
| CC(C)(C)c1ccc(-c2ccc(CNC34CC5CC(CC(C5)C3)C4)s2)cc1 [Example 50b, N-((5-(4-(tert-Butyl)phenyl)thiophen-2-yl)methyl)adamantan-1-amine] | A (key: (A)=31-95%; (B)=0-30%) | – |
| Cc1ccc(CNC23CC4CC(CC(C4)C2)C3)c(O)c1 [Example 51a] | – | A (key: (A)=31-95%; (B)=0-30%) |

| SMILES | S31N OOcyte Inhibition at 100 uM (%) (pH 5.5) | S31N OOcyte Inhibition at 100 uM (%) |
| --- | --- | --- |
| Cc1csc(-c2ccc(CNC34CC5CC(CC(C5)C3)C4)s2)c1 [Example 51b, N-((4′-Methyl-[2,2′-bithiophen]-5-yl)methyl)adamantan-1-amine] | A (key: (A)=31-95%; (B)=0-30%) | – |
| Cc1ccc(-c2ccc(CNC34CC5CC(CC(C5)C3)C4)s2)o1 [Example 52b, N-((5-(5-Methylfuran-2-yl)thiophen-2-yl)methyl)adamantan-1-amine] | A (key: (A)=31-95%; (B)=0-30%) | – |
| c1ccc(-c2cnc(CNC34CC5CC(CC(C5)C3)C4)[nH]2)cc1 [Example 53b, N-((5-phenyl-1H-imidazol-2-yl)methyl)adamantan-1-amine] | A (key: (A)=31-95%; (B)=0-30%) | – |
| c1nc(N2CCCC2)ncc1CNC12CC3CC(CC(C3)C1)C2 [Example 54b, N-((2-(pyrrolidin-1-yl)pyrimidin-5-yl)methyl)adamantan-1-amine] | A (key: (A)=31-95%; (B)=0-30%) | – |
| c1csc(-c2ccc(CNC34CC5CC(CC(C5)C3)C4)nc2)c1 [Example 55a, Adamantan-1-yl-(5-thiophen-2-yl-pyridin-2-ylmethyl)-amine] | – | A (key: (A)=31-95%; (B)=0-30%) |
| COc1ncc(CNC23CC4CC(CC(C4)C2)C3)cn1 [Example 55b, N-((2-methoxypyrimidin-5-yl)methyl)adamantan-1-amine] | A (key: (A)=31-95%; (B)=0-30%) | – |
| CCSc1ncc(CNC23CC4CC(CC(C4)C2)C3)cn1 [Example 56b, N-((2-(ethylthio)pyrimidin-5-yl)methyl)adamantan-1-amine] | A (key: (A)=31-95%; (B)=0-30%) | – |
| c1nc(N2CCOCC2)ncc1CNC12CC3CC(CC(C3)C1)C2 [Example 57b, N-((2-morpholinopyrimidin-5-yl)methyl)adamantan-1-amine] | A (key: (A)=31-95%; (B)=0-30%) | – |
| c1csc(-c2ccc(CNC34CC5CC(CC(C5)C3)C4)cn2)c1 [Example 58a, N-((6-(thiophen-2-yl)pyridin-3-yl)methyl)adamantan-1-amine] | – | A (key: (A)=31-95%; (B)=0-30%) |
| c1nc(N2CCCCC2)ncc1CNC12CC3CC(CC(C3)C1)C2 [Example 58b, N-((2-(piperidin-1-yl)pyrimidin-5-yl)methyl)adamantan-1-amine] | A (key: (A)=31-95%; (B)=0-30%) | – |
| c1cc(-c2ccc(CNC34CC5CC(CC(C5)C3)C4)cn2)cs1 [Example 59a, N-((6-(thiophen-3-yl)pyridin-3-yl)methyl)adamantan-1-amine] | – | A (key: (A)=31-95%; (B)=0-30%) |
| CN(C)c1ncc(CNC23CC4CC(CC(C4)C2)C3)cn1 [Example 59b, N-((2-dimethylaminopyrimidin-5-yl)methyl)adamantan-1-amine] | A (key: (A)=31-95%; (B)=0-30%) | – |
| CCOC(=O)CN(C)c1ncc(CNC23CC4CC(CC(C4)C2)C3)cn1 [Example 60b, N-((2-methyl(ethylcarboxymethyl)aminopyrimidin-5-yl)methyl)adamantan-1-amine] | A (key: (A)=31-95%; (B)=0-30%) | – |
| c1nc(C2CCCCC2)ncc1CNC12CC3CC(CC(C3)C1)C2 [Example 61b, N-((2-cyclohexylpyrimidin-5-yl)methyl)adamantan-1-amine] | A (key: (A)=31-95%; (B)=0-30%) | – |
| CCCSc1ncc(CNC23CC4CC(CC(C4)C2)C3)cn1 [Example 62b, N-((2-propylthiopyrimidin-5-yl)methyl)adamantan-1-amine] | A (key: (A)=31-95%; (B)=0-30%) | – |
| c1ccc(-c2ncc(CNC34CC5CC(CC(C5)C3)C4)cn2)cc1 [Example 63a, N-((2-phenylpyrimidin-5-yl)methyl)adamantan-1-amine] | – | A (key: (A)=31-95%; (B)=0-30%) |
| Cc1cccc(-c2ncc(CNC34CC5CC(CC(C5)C3)C4)cn2)c1 [Example 63b, N-((2-mtolylpyrimidin-5-yl)methyl)adamantan-1-amine] | A (key: (A)=31-95%; (B)=0-30%) | – |
| c1ccc(-c2ncc(CNC34CC5CC(CC(C5)C3)C4)cn2)nc1 [Example 64a, N-((2-(pyridin-2-yl)pyrimidin-5-yl)methyl)adamantan-1-amine] | – | B (key: (A)=31-95%; (B)=0-30%) |
| COc1ncc(CNC23CC4CC(CC(C4)C2)C3)c(OC)n1 [Example 64b, N-((2,4-dimethoxypyrimidin-5-yl)methyl)adamantan-1-amine] | B (key: (A)=31-95%; (B)=0-30%) | – |
| c1nc(CNC23CC4CC(CC(C4)C2)C3)sc1C1CC1 [Example 65b, Adamantan-1-yl-(5-cyclopropyl-thiazol-2-ylmethyl)-amine] | A (key: (A)=31-95%; (B)=0-30%) | – |
| CSc1ccccc1-c1ccc(CNC23CC4CC(CC(C4)C2)C3)cc1 [Example 66b, Adamantan-1-yl-(2′-methylsulfanyl-biphenyl-4-ylmethyl)-amine] | A (key: (A)=31-95%; (B)=0-30%) | – |
| Cc1ccc(CNC23CC4CC(CC(C4)C2)C3)o1 [Example 67a] | – | A (key: (A)=31-95%; (B)=0-30%) |
